pEC50, pKd: −log10 of the molar value. Calls of active or inactive are those of the source. The rule behind the calls is not given here.
Key:
[1] = target: Replicase polyprotein 1ab (Severe acute respiratory syndrome coronavirus 2) (UniProt P0DTD1); assay: Inhibition of SARS-CoV-2 RdRp in HEK-293T cells at 10 uM measured after 24 hrs relative to control; assay type: cell-based
[2] = Antiviral activity against SARS-CoV-2 infected in HEK293T cells assessed as inhibition of SARS-CoV-2 RdRp in the presence of coelenterazine-h incubated for 24 hrs by Gaussia luciferase reporter assay; assay type: functional, cell-based; settings: Homo sapiens, HEK-293T
[3] = Cytotoxicity against HEK293T cells assessed as inhibition of cell growth measured after 48 hrs by CCK8 assay; assay type: toxicity, cell-based, HEK-293T; settings: human
[4] = Selectivity index, ratio of CC50 for cytotoxicity against HEK293T cells assessed as inhibition of cell growth to EC50 for antiviral activity against SARS-CoV-2 infected in HEK293T cells assessed as inhibition of SARS-CoV-2 RdRp; assay type: toxicity, cell-based; settings: human, read-out: Ratio CC50/EC50
[5] = target: Replicase polyprotein 1ab (Severe acute respiratory syndrome coronavirus 2) (UniProt P0DTD1); assay: (§1) Inhibition of SARS-CoV-2 RdRp mediated RNA synthesis in HEK-293T cells cotransfected with pCoV-GLuc and pCMV6-nsp12/nsp7/nsp8 assessed as reduction in plus strand RNA level by measuring GLuc RNA level for 24 hrs in the presence of coelenterazine-h by Gaussia luciferase reporter assay; assay type: cell-based; settings: dose 2-10 µM
[6] = target: Replicase polyprotein 1ab (Severe acute respiratory syndrome coronavirus 2) (UniProt P0DTD1); assay: (§2) Inhibition of SARS-CoV-2 RdRp mediated RNA synthesis in HEK-293T cells cotransfected with pCoV-GLuc and pCMV6-nsp12/nsp7/nsp8 assessed as reduction in minus strand RNA level by measuring GLuc RNA level for 24 hrs in the presence of coelenterazine-h by Gaussia luciferase reporter assay; assay type: cell-based; settings: dose 2-10 µM
[7] = target: T1, Replicase polyprotein 1ab (Severe acute respiratory syndrome coronavirus 2, UniProt P0DTD1); assay: Inhibition of SARS-CoV-2 nsp14 in HEK-293T cells cotransfected with pCoV-GLuc incubated for 24 hrs in the presence of coelenterazine-h by Gaussia luciferase reporter assay; assay type: cell-based
[8] = target: T1, Replicase polyprotein 1ab; assay: Inhibition of his tagged SARS-CoV-2 nsp12 in HEK-293T cells cotransfected with pCoV-GLuc incubated for 24 hrs in the presence of coelenterazine-h by Gaussia luciferase reporter assay; assay type: cell-based
Human coronavirus OC43 [9] = assay: Antiviral activity against HCoV-OC43 infected in human HCT-8 cells at a MOI of 0.1 assessed as inhibition of viral replication measured after 5 days by MTS assay; assay type: functional, organism-based; settings: Betacoronavirus 1, HCT-8, 120 h
Human coronavirus NL63 [10] = assay: Antiviral activity against HCoV-NL63 infected in Rhesus monkey LLC-MK2 cells at a MOI of 0.01 assessed as inhibition of viral replication measured after 120 hrs by MTS assay; assay type: functional, organism-based; settings: Human coronavirus NL63, LLC-MK2, 120 h
[11] = target: Replicase polyprotein 1ab (Severe acute respiratory syndrome coronavirus 2) (UniProt P0DTD1); assay: as §1, with “RNA level at 10 uM by measuring” for “RNA level by measuring”, “reporter assay relative to control” for “reporter assay”; assay type: cell-based
[12] = target: Replicase polyprotein 1ab (Severe acute respiratory syndrome coronavirus 2) (UniProt P0DTD1); assay: as §2, with “RNA level at 10 uM by measuring” for “RNA level by measuring”, “reporter assay relative to control” for “reporter assay”; assay type: cell-based
[13] = Cytotoxicity against human HCT-8 cells incubated for 48 hrs by CCK8 method; assay type: toxicity, cell-based
[14] = Cytotoxicity against Rhesus monkey LLC-MK2 cells incubated for 48 hrs by method; assay type: toxicity, cell-based, Macaca mulatta
[15] = target: T1, Replicase polyprotein 1ab; assay: Binding affinity to SARS-CoV-2 nsp12 expressed in Escherichia coli BL21 (DE3) cells using biotinylated EZ-link NHS-LC-LC assessed as dissociation constant incubated for 180 sec by BLI assay
[16] = target: T1, Replicase polyprotein 1ab; assay: Binding affinity to SARS-CoV-2 nsp12 expressed in Escherichia coli BL21 (DE3) cells using biotinylated EZ-link NHS-LC-LC assessed as dissociation constant at 6.25 to 100 uM incubated for 180 sec by BLI assay
Human coronavirus OC43 [17] = assay: Potency index, ratio of PAP EC50 to test compound EC50 for antiviral activity against HCoV-OC43 infected in human HCT-8 cells assessed as reduction in virus-induced cytopathic effect measured after 120 hrs by MTS assay; assay type: functional
Human coronavirus NL63 [18] = assay: Potency index, ratio of PAP EC50 to test compound EC50 for antiviral activity against HCoV-NL63 infected in Rhesus monkey LLC-MK2 cells assessed as reduction in viru-induced cytopathic effect measured after 120 hrs by MTS assay; assay type: functional
SARS-CoV-2 = assay: Antiviral activity against SARS-CoV-2 C-Tan-n-CoV Wuhan infected in African green monkey Vero E6 cells assessed as inhibition of viral replication incubated for 24 hrs by qRT-PCR analysis; assay type: functional, organism-based; settings: Severe acute respiratory syndrome coronavirus 2, C-Tan-n-CoV Wuhan, Vero C1008, 24 h
Human coronavirus OC43 [19] = assay: Antiviral activity against HCoV-OC43 infected in golden hamster BHK-21 cells assessed as inhibition of viral infection at 10 uM measured after 24 hrs by luciferase assay; assay type: functional, organism-based
Human coronavirus OC43 [20] = assay: Antiviral activity against HCoV-OC43(Rluc) infected in golden hamster BHK-21 cells assessed as inhibition of viral replication at 10 uM pre-infected with virus for 1 hrs followed by compound addition and measured after 24 hrs by luciferase assay; assay type: functional, organism-based
Human coronavirus OC43 [21] = assay: Antiviral activity against HCoV-OC43(Rluc) infected in BHK-21 cells assessed as inhibition of viral infection at 10 uM pre-infected with virus for 2 hrs followed by compound addition measured after 24 hrs by luciferase assay; assay type: functional, organism-based
[22] = target: Replicase polyprotein 1ab (Severe acute respiratory syndrome coronavirus 2) (UniProt P0DTD1); assay: Inhibition of SARS-CoV-2 3CLpro in HEK293T cells at 2 to 20 uM measured after 48 hrs by Western blot analysis; assay type: cell-based; settings: dose 2-20 µM

| SMILES | inhibition [1] | pEC50 [2] | CC50 at 48 h [3] | other results |
| --- | --- | --- | --- | --- |
| C[C@H](NC(=O)OC(C)(C)C)C(=O)Nc1nc(N)ccc1/N=N/c1ccccc1 | 86% | 5.85 | > 100 µM | selectivity ratio [4]: 70.4; inhibition [5]: Dose-dependent-effect; inhibition [6]: Dose-dependent-effect; pEC50 [7]: 5.76; pEC50 [8]: 5.85 |
| NCC(=O)Nc1nc(N)ccc1/N=N/c1ccccc1 | 52.4% | 5.03 | > 100 µM | – |
| Nc1ccc(/N=N/c2ccccc2)c(NC(=O)[C@@H](N)Cc2c[nH]c3ccccc23)n1 | 82.7% | 5.79 | 81.9 µM | selectivity ratio [4]: 50; inhibition [5]: Dose-dependent-effect; inhibition [6]: Dose-dependent-effect; pEC50 [7]: 5.82; pEC50 [8]: 5.79 |
| Nc1ccc(/N=N/c2ccc([N+](=O)[O-])cc2)c(N)n1 | 45.8% | – | – | – |
| Nc1ccc(/N=N/c2ccc(OCc3ccccc3)cc2)c(N)n1 | 65.3% | 5.15 | > 100 µM | – |
| Nc1nc(N)c(/N=N/c2ccccc2)cc1Br | 51.1% | 4.88 | > 100 µM | – |
| Nc1ccc(/N=N/c2ccc(Cc3ccccc3)cc2)c(N)n1 | 59.3% | 5.19 | > 100 µM | – |
| CN(C)c1ccc(/N=N/c2ccc(N)nc2N)cc1 | 50.1% | 5.02 | > 100 µM | – |
| CCC(CC)COC(=O)[C@H](C)N[P@](=O)(OC[C@H]1O[C@@](C#N)(c2ccc3c(N)ncnn23)[C@H](O)[C@@H]1O)Oc1ccccc1 | – | – | > 100 µM | pEC50 (Human coronavirus OC43 [9]): 5.72; pEC50 (Human coronavirus NL63 [10]): 5.57; inhibition [5]: Dose-dependent-effect; inhibition [6]: Dose-dependent-effect; inhibition [11]: 80%; inhibition [12]: 80%; CC50 at 48 h [13]: > 100 µM; CC50 at 48 h [14]: > 100 µM |
| Nc1ccc(/N=N/c2cccc3c2CCCC3)c(N)n1 | 71.8% | 5.13 | 78.9 µM | – |
| Nc1ccc(/N=N/c2ccc(C(F)(F)F)cc2)c(N)n1 | 74.9% | 5.20 | > 100 µM | – |
| Nc1ccc(/N=N/c2ccccc2)c(NC(=O)[C@@H](N)Cc2ccccc2)n1 | 56.7% | 5.06 | > 100 µM | – |
| C[C@H](N)C(=O)Nc1nc(N)ccc1/N=N/c1ccccc1 | 48.2% | – | – | – |
| CC(C)(C)OC(=O)N[C@@H](Cc1c[nH]c2ccccc12)C(=O)Nc1nc(N)ccc1/N=N/c1ccccc1 | 79.8% | 5.42 | 79.2 µM | – |
| CC(C)(C)OC(=O)NCC(=O)Nc1nc(N)ccc1/N=N/c1ccccc1 | 77.4% | 5.77 | > 100 µM | – |
| CSCC[C@H](N)C(=O)Nc1nc(N)ccc1/N=N/c1ccccc1 | 55.3% | 5.14 | > 100 µM | – |

| SMILES | inhibition [1] | pEC50 [2] | CC50 at 48 h [3] | other results |
| --- | --- | --- | --- | --- |
| Cc1cc(N)nc(N)c1/N=N/c1ccccc1 | 49.9% | – | – | – |
| Nc1ccc(/N=N/c2ccc(Br)cc2)c(N)n1 | 71.8% | 5.06 | > 100 µM | – |
| CC(C)(C)OC(=O)N[C@@H](Cc1ccccc1)C(=O)Nc1nc(N)ccc1/N=N/c1ccccc1 | 79.8% | 5.58 | > 100 µM | – |
| COc1ccc(/N=N/c2ccc(N)nc2N)cc1 | 48% | – | – | – |
| CC(C)(C)OC(=O)N1CCC[C@H]1C(=O)Nc1nc(N)ccc1/N=N/c1ccccc1 | 88.5% | 5.95 | > 100 µM | pEC50 (Human coronavirus OC43 [9]): 5.84; pEC50 (Human coronavirus NL63 [10]): 5.52; selectivity ratio [4]: 6.64; inhibition [5]: Dose-dependent-effect; inhibition [6]: Dose-dependent-effect; inhibition [12]: 90%; pEC50 [7]: 5.87; pEC50 [8]: 5.95; Kd [15]: Dose-dependent-effect; pKd [16]: 5.62; CC50 at 48 h [13]: > 100 µM; CC50 at 48 h [14]: > 100 µM; Ratio EC50 (Human coronavirus OC43 [17]): 3.28; Ratio EC50 (Human coronavirus NL63 [18]): 1.85 |
| Cc1ccc(/N=N/c2ccc(N)nc2N)cc1 | 59.1% | 5.07 | > 100 µM | – |
| Cl.Nc1ccc(/N=N/c2ccccc2)c(N)n1 [PHENAZOPYRIDINE HYDROCHLORIDE] | 50% | 5.13 | > 100 µM | pEC50 (SARS-CoV-2): 5.27; pEC50 (Human coronavirus OC43 [9]): 5.33; pEC50 (Human coronavirus NL63 [10]): 5.26; selectivity ratio [4]: > 13.6; inhibition [5]: Dose-dependent-effect; inhibition [6]: Dose-dependent-effect; inhibition [11]: 90%; pEC50 [7]: 5.10; pEC50 [8]: 5.13; Kd [15]: Dose-dependent-effect; pKd [16]: 5.30; CC50 at 48 h [13]: > 100 µM; CC50 at 48 h [14]: > 100 µM; inhibition (Human coronavirus OC43 [19]): Active; inhibition (Human coronavirus OC43 [20]): Active; Minor Effects Was Observed; inhibition (Human coronavirus OC43 [21]): Active; inhibition [22]: inactive |
| Nc1ccc(/N=N/c2ccccc2)c(NC(=O)[C@@H]2CCCN2)n1 | 72.9% | 5.42 | > 100 µM | – |
| Nc1cc(-c2ccccc2)c(/N=N/c2ccccc2)c(N)n1 | 65.6% | 5.08 | > 100 µM | – |
| Oc1ccc(/N=N/c2ccccc2)cc1 | 45.4% | – | – | – |
| Nc1ccc(/N=N/c2ccc(Cl)cc2)c(N)n1 | 64.5% | 5.12 | > 100 µM | – |
| CSCC[C@H](NC(=O)OC(C)(C)C)C(=O)Nc1nc(N)ccc1/N=N/c1ccccc1 | 83% | 5.88 | > 100 µM | selectivity ratio [4]: 75.2; inhibition [5]: Dose-dependent-effect; inhibition [6]: Dose-dependent-effect; pEC50 [7]: 5.86; pEC50 [8]: 5.88 |
| Nc1ccc(/N=N/c2ccc(F)cc2)c(N)n1 | 64.9% | 5.06 | > 100 µM | – |
| Nc1cc(Br)c(/N=N/c2ccccc2)c(N)n1 | 41.9% | – | – | – |
| Nc1nc(N)c(/N=N/c2ccccc2)cc1/N=N/c1ccccc1 | 46% | – | – | – |

— ChEMBL document CHEMBL6109081, “Discovery and optimization of phenazopyridine hydrochloride as novel SARS-CoV-2 RdRp inhibitors” (Eur J Med Chem, 2025)
